One data set concerns the target T1, ovine COX1 (Ovis aries, UniProt P05979).
T1 construct: purchased Cayman Chemical 560131 (kit)
T1 sequence (P05979 25-600): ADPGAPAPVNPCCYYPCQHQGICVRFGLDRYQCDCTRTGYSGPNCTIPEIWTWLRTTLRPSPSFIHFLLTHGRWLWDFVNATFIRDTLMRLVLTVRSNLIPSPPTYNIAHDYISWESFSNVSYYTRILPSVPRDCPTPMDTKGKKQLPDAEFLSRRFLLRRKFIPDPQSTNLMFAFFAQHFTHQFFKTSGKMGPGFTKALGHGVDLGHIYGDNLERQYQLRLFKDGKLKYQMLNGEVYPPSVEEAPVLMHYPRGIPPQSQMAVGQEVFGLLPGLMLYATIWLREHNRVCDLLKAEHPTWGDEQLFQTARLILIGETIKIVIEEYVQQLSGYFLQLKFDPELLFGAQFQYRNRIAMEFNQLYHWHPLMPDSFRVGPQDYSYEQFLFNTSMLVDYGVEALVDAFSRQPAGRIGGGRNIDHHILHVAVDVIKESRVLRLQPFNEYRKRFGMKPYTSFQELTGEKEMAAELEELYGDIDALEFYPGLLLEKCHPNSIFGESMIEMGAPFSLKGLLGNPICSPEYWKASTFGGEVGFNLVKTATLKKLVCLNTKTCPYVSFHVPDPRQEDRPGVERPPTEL
As to the kind of experiment: COX inhibitor screening assay kit (Cayman No. 560131), COX1. It counts as biochemical. As for the experimental part: All chemicals were purchased from Sigma-Aldrich and Alfa Aesar. Melting points were determined with an SMP-II Digital Melting Point Apparatus and are uncorrected. IR spectra were obtained using a Perkin Elmer Spectrum 400 FTIR/FTNIR spectrometer. ^1H-NMR and ^13C-NMR spectra were recorded in DMSO-d6 and were performed on two NMR instruments. […] The second was a Bruker 300 MHz-Avance III High-Performance Digital FT-NMR spectrometer at the NMR facility at the Doping and Narcotics Analysis Laboratory of the faculty of pharmacy, Anadolu University, Turkey (it was used for both ^1H-NMR and ^13C-NMR for the other compounds). Tetramethylsilane was used as the internal standard. All chemical shifts were recorded as d (ppm). […] HeLa Cervical Carcinoma cell line was purchased from ATCC (ATCC® CCL-2™), and the cyototoxicty test of the cell viability was assessed by the CellTilter 96® Aqueous One Solution Cell Proliferation (MTS) assay according to the manufacturer’s instructions (Promega Corporation, Madison, WI) (Additional file 1).
The assay was run in duplicate with three concentrations (50, 20, and 5 µM). […] The percentage inhibition of the three concentrations was used to calculate the IC50 [16].

For a further data set, the target named is T2, human recombinant COX2 (Homo sapiens, UniProt P35354).
T2 construct: purchased Cayman Chemical 560131 (kit)
T2 sequence (P35354 18-604): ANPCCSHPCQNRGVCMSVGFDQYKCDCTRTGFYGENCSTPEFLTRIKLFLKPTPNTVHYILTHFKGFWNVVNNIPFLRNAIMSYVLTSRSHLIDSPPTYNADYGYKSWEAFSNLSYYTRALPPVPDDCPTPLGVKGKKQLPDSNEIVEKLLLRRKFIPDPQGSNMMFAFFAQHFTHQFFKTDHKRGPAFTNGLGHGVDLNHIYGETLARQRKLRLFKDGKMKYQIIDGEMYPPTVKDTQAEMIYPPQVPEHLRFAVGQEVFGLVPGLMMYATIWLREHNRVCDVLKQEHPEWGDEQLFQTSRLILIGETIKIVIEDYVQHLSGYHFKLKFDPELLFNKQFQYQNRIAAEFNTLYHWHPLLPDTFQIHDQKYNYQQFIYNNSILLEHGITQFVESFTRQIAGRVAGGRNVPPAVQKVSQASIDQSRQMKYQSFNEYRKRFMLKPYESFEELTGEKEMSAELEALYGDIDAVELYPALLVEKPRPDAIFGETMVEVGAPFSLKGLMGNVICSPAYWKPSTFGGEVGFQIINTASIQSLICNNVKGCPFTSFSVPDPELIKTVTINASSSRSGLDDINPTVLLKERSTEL
Briefly: COX inhibitor screening assay kit (Cayman No. 560131), COX2. It is filed as biochemical. Conditions: for COX1/COX2 Ratio Selectivity: ratio of IC50 COX1 to IC50 COX2; for IC50: run in duplicate with three concentrations (50, 20, and 5 µM).

Data set [1] can be described thus: MTS cytotoxicity assay on HeLa cells. It is filed as cell-based. Conditions: human. The protocol: An MTS assay was used to determine the cytotoxic effect of Benzodioxole derivatives on HeLa (cervical carcinoma cells).
All chemicals were purchased from Sigma-Aldrich and Alfa Aesar. Melting points were determined with an SMP-II Digital Melting Point Apparatus and are uncorrected. IR spectra were obtained using a Perkin Elmer Spectrum 400 FTIR/FTNIR spectrometer. ^1H-NMR and ^13C-NMR spectra were recorded in DMSO-d6 and were performed on two NMR instruments. The first was a Bruker 500 MHz-Avance III High-Performance Digital FT-NMR spectrometer at the Faculty of Science, Department of Chemistry, The University of Jordan, Jordan (it was used for the ^1H-NMR of just one compound, 3e). The second was a Bruker 300 MHz-Avance III High-Performance Digital FT-NMR spectrometer at the NMR facility at the Doping and Narcotics Analysis Laboratory of the faculty of pharmacy, Anadolu University, Turkey (it was used for both ^1H-NMR and ^13C-NMR for the other compounds). Tetramethylsilane was used as the internal standard. All chemical shifts were recorded as d (ppm). […] The yellow product of this enzymatic reaction was determined using a UV spectrophotometer with a Microplate Reader (BioRad, Japan) at a wavelength of 415 nm. HeLa Cervical Carcinoma cell line was purchased from ATCC (ATCC® CCL-2™), and the cyototoxicty test of the cell viability was assessed by the CellTilter 96® Aqueous One Solution Cell Proliferation (MTS) assay according to the manufacturer’s instructions (Promega Corporation, Madison, WI) (Additional file 1).
HeLa Cervical Carcinoma was cultured in RPMI-1640 media and supplemented with 10% fetal bovine serum, 1% penicillin/streptomycin antibiotics and 1% L-glutamine. Cells were grown in a humidified atmosphere with 5% CO2 at 37 °C, and they were seeded in 2.6 × 10^4 cells/well in a 96-well plate. After 48 h, the cells were confluent, the media was changed, and cells were incubated with four concentrations (2, 1, 0.5, and 0.2 mM) of the tested compounds for 24 h. Cell viability was assessed by the CellTilter 96® Aqueous One Solution Cell Proliferation (MTS) Assay according to the manufacturer’s instructions (Promega Corporation, Madison, WI). Briefly, at the end of the treatment, 20 μL of MTS solution per 100 μL of media was added to each well and incubated at 37 °C for 2 h. Absorbance was measured at 490 nm.

The mark [2] stands for this setting: run in duplicate with three concentrations (50, 20, and 5 µM), read-out: The IC50 in µM of COX1.
Setting [3] is: HeLa cervical carcinoma cells (ATCC CCL-2), HeLa, 24 h incubation, MTS, read-out: HeLa Cell CC50 in milli-molar.

Usually IC50 stands for the concentration that gives 50% inhibition. The CC50 is the concentration giving 50% cytotoxicity. Usually melting point stands for the temperature of the solid-liquid transition.

Each structure is given as a SMILES string. Read-outs that look alike come from different tables or passages of the source.

For the compound `COC(=O)Cc1cc2c(cc1C(=O)c1ccccc1)OCO2` [3a, Methyl 2-(6-benzoylbenzo[d][1,3]dioxol-5-yl)acetate], the IC50 at ovine COX1 (setting [2]) turned out to be 12.3 µM. Also, on human recombinant COX2, the “COX1/COX2 Ratio Selectivity” value is 0.859 and the IC50 turned out to be 14.3 µM. Moreover, in data set [1] (setting [3]), the CC50 at 24 h was 1490 µM.
As to `COC(=O)Cc1cc2c(cc1C(=O)c1ccccc1I)OCO2` [3b, Methyl 2-(6-(2-iodobenzoyl)benzo[d][1,3]dioxol-5-yl)acetate], at ovine COX1 (setting [2]), the IC50 is 1.12 µM. At human recombinant COX2, the “COX1/COX2 Ratio Selectivity” value is reported as 0.862 and the IC50 stood at 1.3 µM. Further, in data set [1] (setting [3]), the CC50 at 24 h was 228 µM.
For `COC(=O)Cc1cc2c(cc1C(=O)c1ccc(I)cc1)OCO2` [3c, Methyl 2-(6-(4-iodobenzoyl)benzo[d][1,3]dioxol-5-yl)acetate], the melting point is 119 to 121 °C. Besides, at ovine COX1 (setting [2]), the IC50 was determined as 27.1 µM. In addition, on human recombinant COX2, the “COX1/COX2 Ratio Selectivity” value stood at 0.723 and the IC50 was 37.5 µM. Besides, in data set [1] (setting [3]), the 50% cytotoxic concentration (CC50) at 24 h came to 1790 µM.
For `COC(=O)Cc1cc2c(cc1C(=O)c1ccccc1Br)OCO2` [3d, Methyl 2-(6-(2-bromobenzoyl)benzo[d][1,3]dioxol-5-yl)acetate], the melting point lay in the range of 85 to 87 °C. At human recombinant COX2, the “COX1/COX2 Ratio Selectivity” value is given as 0.897 and the IC50 is 1.45 µM. For the same compound, the CC50 at 24 h in data set [1] (setting [3]) worked out at 1610 µM.
Turning to `COC(=O)Cc1cc2c(cc1C(=O)c1cccc(Br)c1)OCO2` [3e, Methyl 2-(6-(3-bromobenzoyl)benzo[d][1, 3]dioxol-5-yl)acetate], the melting point lay in the range of 72.5 to 74.5 °C. The IC50 at ovine COX1 (setting [2]) turned out to be 2.36 µM. At human recombinant COX2, the “COX1/COX2 Ratio Selectivity” value turned out to be 0.864 and the IC50 was 2.73 µM. Moreover, in data set [1], half-maximal cytotoxicity (CC50 at 24 h) was put at 219 µM.
`COC(=O)Cc1cc2c(cc1C(=O)c1ccc(Cl)cc1Cl)OCO2` [3f, Methyl 2-(6-(2,4-dichlorobenzoyl)benzo[d][1, 3]dioxol-5-yl)acetate] came in with a melting point of 95 to 97 °C.
For `O=C(O)Cc1cc2c(cc1C(=O)c1ccccc1)OCO2` [4a, 2-(6-benzoylbenzo[d][1,3]dioxol-5-yl)acetic acid], the melting point lay within 184.5 to 186.5 °C. Also, the IC50 at ovine COX1 (setting [2]) is 1.45 µM. Besides, at human recombinant COX2, the “COX1/COX2 Ratio Selectivity” value is 0.434 and the IC50 stood at 3.34 µM. For the same compound, in data set [1] (setting [3]), the CC50 at 24 h stood at 1940 µM.
In the case of `O=C(O)Cc1cc2c(cc1C(=O)c1ccccc1I)OCO2` [4b, 2-(6-(2-iodobenzoyl)benzo[d][1,3]dioxol-5-yl)acetic acid], the melting point is 147 to 149 °C. The IC50 at ovine COX1 (setting [2]) is 7.67 µM. In addition, at human recombinant COX2, the “COX1/COX2 Ratio Selectivity” value amounted to 0.250 and the IC50 is 30.7 µM. Further, in data set [1] (setting [3]), the CC50 at 24 h worked out at 697 µM.
`O=C(O)Cc1cc2c(cc1C(=O)c1ccc(I)cc1)OCO2` [4c, 2-(6-(4-iodobenzoyl)benzo[d][1,3]dioxol-5-yl)acetic acid] displayed a melting point of 239.5 to 241.5 °C. Besides, the half-inhibitory concentration (IC50) on ovine COX1 (setting [2]) came out at 33.7 µM. For the same compound, at human recombinant COX2, the “COX1/COX2 Ratio Selectivity” value came to 0.861 and the 50% inhibitory concentration (IC50) worked out at 39.1 µM. In addition, in data set [1] (setting [3]), the CC50 at 24 h is 1050 µM.
`O=C(O)Cc1cc2c(cc1C(=O)c1ccccc1Br)OCO2` [4d, 2-(6-(2-bromobenzoyl)benzo[d][1,3]dioxol-5-yl)acetic acid]: the melting point lay in the range of 145 to 147 °C. In addition, the half-maximal inhibitory concentration (IC50) at ovine COX1 (setting [2]) amounted to 4.25 µM. At human recombinant COX2, the “COX1/COX2 Ratio Selectivity” value amounted to 1.809 and the IC50 is 2.35 µM. For the same compound, in data set [1] (setting [3]), the CC50 at 24 h worked out at 547 µM.
As for `O=C(O)Cc1cc2c(cc1C(=O)c1cccc(Br)c1)OCO2` [4e, 2-(6-(3-bromobenzoyl)benzo[d][1, 3]dioxol-5-yl)acetic acid], the melting point was in the range of 154 to 156 °C. Further, on ovine COX1 (setting [2]), the IC50 was 7.11 µM. For the same compound, at human recombinant COX2, the “COX1/COX2 Ratio Selectivity” value was 0.144 and the IC50 worked out at 49.3 µM. Besides, in data set [1] (setting [3]), the CC50 at 24 h is 437 µM.
Regarding `O=C(O)Cc1cc2c(cc1C(=O)c1ccc(Cl)cc1Cl)OCO2` [4f, 2-(6-(2,4-dichlorobenzoyl)benzo[d][1,3]dioxol-5-yl)acetic acid], the melting point was 168.5 to 170 °C. For the same compound, the IC50 at ovine COX1 (setting [2]) came to 0.725 µM. For the same compound, on human recombinant COX2, the “COX1/COX2 Ratio Selectivity” value is 0.169 and the half-maximal inhibitory concentration (IC50) was 4.29 µM. In addition, the 50% cytotoxic concentration (CC50) at 24 h in data set [1] (setting [3]) turned out to be 1020 µM.
Compound `CC(C(=O)O)c1cccc(C(=O)c2ccccc2)c1` (stereo not drawn) [Ketoprofen, reference compound] gave an IC50 against ovine COX1 (The IC50 in µM of COX1, run in duplicate with three concentrations (50, 20, and 5 µM)) of 0.031 µM.

The values above are taken from article PMC7487730, “Design, synthesis and biological evaluation of novel benzodioxole derivatives as COX inhibitors and cytotoxic agents” (BMC Chemistry, 2020).
